Measurements: patent EP4147700A1, “N-(4-(AZAINDAZOL-6-YL)-PHENYL)-SULFONAMIDES FOR USE IN THE TREATMENT OF SICKLE CELL DISEASE” (LQT Therapeutics Inc., priority 2021, dated 2023)

Key:
human CD34+ cells = conditions: for F-cell (HbF+) frequency in enucleated GlyA+ cells / fold change in fetal hemoglobin expression: 14 days of differentiation; for F-cell (HbF+) frequency in enucleated GlyA+ cells: compared to control (DMSO) (FIG. 3A); for fold change in fetal hemoglobin expression: human CD34+ cells, compared to control (Vehicle as DMSO) (FIG. 3B)
Method: Mobilized CD34+ Human Stem/Progenitor Cells (HSPC) from healthy individuals were cultured for 3 days in a maintenance media consisting of X-VIVO 10 (VWR), 100 U/mL penicillin-streptomycin (ThermoFisher), 2mM L-glutamine (Fisher Scientific), 100 ng/mL Recombinant Human Stem Cell Factor (SCF), 100 ng/mL Recombinant Human Thrombopoietin (TPO) and 100 ng/mL Recombinant Human Flt-3 Ligand (Flt-3L) (all three from ThermoFisher). Cells were differentiated into erythroid cells using a three-step differentiation protocol developed by the Luc Douay group (Giarratana et al. 2005). In brief, CD34+ cells were cultured for 7 days in Step 1 media, consisting of Iscove's modified Dulbecco's medium (IMDM) (ThermoFisher) supplemented with 1X GlutaMAX, 100 U/mL penicillin-streptomycin (ThermoFisher), 5% human AB+plasma, 330 ug/mL human holo-transferrin, 10 ug/mL human insulin, 2 U/mL heparin, 1 uM/mL hydrocortisone (Sigma-Aldrich), 3 U/mL recombinant human erythropoietin (EPO) (ThermoFisher), 100 ng/mL SCF (ThermoFisher) and 5 ng/mL interleukin 3 (IL-3) (SigmaAldrich). On day 7, cells were transferred to step 2 media, a step 1 media without hydrocortisone and IL-3 and cultured for 3-4 days. Then cells were cultured for 8-9 days in step 3 media, a step 2 media without SCF. […] To determine the percentage of HbF-positive cells (F-cells), differentiated cells were fixed and permeabilized using a fixation kit (ThermoFisher). Cells were stained with PE-Cy7-conjugated anti-CD235 or PE-conjugated anti-CD71 antibodies. HbF levels were detected using Allophycocyanin (APC)-conjugated anti-HbF antibody (ThermoFisher). The acquisition of stained cells was performed on BD FACSCanto™ and the analysis was run using FlowJo™ Software.
After 14 days of differentiation, cells were fixed and stained with CD235a, CD71 and fetal hemoglobin antibodies for flowcytometry analysis.

[1] = test system: CD34+ cells from patients with sickle cell disease; conditions: for F-cell (HbF+) frequency in enucleated GlyA+ cells: CD34+ cells from patients with sickle cell disease, compared to control (DMSO) (FIG. 4A)
Excerpt: To measure the effect of Compound 346 on fetal hemoglobin induction in CD34+ cells from patients with sickle cell disease, circulating CD34+ progenitor cells were isolated from total blood obtained from sickle cell patients, by performing a positive selection for CD34+ cells with magnetic beads (Miltenyi Biotec). Purified CD34+ cells were differentiated for 14 days. After differentiation, cells were fixed and stained with CD235a, CD71 and fetal hemoglobin antibodies for flowcytometry analysis.

SGK1 = molecular target: T1, SGK1 (Homo sapiens, UniProt O00141); assay: SGK1 target engagement: Western blot of SGK1 phosphorylation at Thr256 in CD34+ cells; format: cell-based; conditions: CD34+ cells from a healthy donor, day 11 of differentiation, 1h after exposure (FIG. 5)
T1 construct: endogenous in cells; host or cells: Mobilized human CD34+ HSPC from a healthy donor, day 11 of erythroid differentiation
T1 sequence (O00141 1-431): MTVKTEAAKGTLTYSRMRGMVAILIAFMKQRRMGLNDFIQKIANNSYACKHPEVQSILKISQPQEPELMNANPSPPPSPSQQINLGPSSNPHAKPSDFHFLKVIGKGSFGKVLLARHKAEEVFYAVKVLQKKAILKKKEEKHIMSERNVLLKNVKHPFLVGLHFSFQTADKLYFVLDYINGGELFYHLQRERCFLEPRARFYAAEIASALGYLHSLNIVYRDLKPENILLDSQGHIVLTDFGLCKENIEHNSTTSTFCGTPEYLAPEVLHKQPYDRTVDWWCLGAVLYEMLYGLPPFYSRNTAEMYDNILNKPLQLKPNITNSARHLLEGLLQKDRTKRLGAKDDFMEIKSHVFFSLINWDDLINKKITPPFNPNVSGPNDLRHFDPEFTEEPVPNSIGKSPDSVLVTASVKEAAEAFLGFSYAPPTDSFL
Method: (§1) To verify SGK1 target engagement by Compound 346, CD34+ cells from a healthy donor were exposed to Compound 346 at the indicated dose (µM), harvested and lysed at the indicated time points. Phosphorylation of SGK1 at threonine 256 (Thr256) was assessed by Western blot using antibody anti-pSGK1 (Thr256) (Thermofisher) and anti-SGK1 (Cell Signaling). Human CD34+ cells, cells were collected on Day 11 of differentiation then exposed to Compound 346. According to the time course, cells were collected and lysed using RIPA buffer mixed with a phosphatase and protease inhibitors cocktail (Thermofisher). Sample protein concentrations were measured with the Pierce […] (ThermoFisher). The α-tubulin antibody (Cell Signaling) served as an internal control. Immunoreactive proteins were visualized by using an ECL® (enhanced chemiluminescence) detection system (BioRad). Optical density was measured with ImageJ software (National Institutes of Health, Bethesda, MD) and the ratio of phospho-SGK1 to total SGK1 was calculated, normalized on α-tubulin, and plotted based on the densitometry measurements. […] Furthermore, SGK1 downstream pathway activation was verified by measuring phosphorylation of FOXO3 at Serine 315, a direct target of activated SGK1. Quantification of FOXO3 activation was assessed by Western Blot using antibodies anti-pFOXO3 (Ser315) and anti-FOXO3 (Cell Signaling). […]

FOXO3 = assay: SGK1 downstream pathway: Western blot of FOXO3 phosphorylation at Serine 315 in CD34+ cells; format: cell-based, human; conditions: CD34+ cells from a healthy donor, day 11 of differentiation, 1-hour time point, densitometry (FIG. 5)
Method: as §1

sickle erythroid cells = assay: Sickling assay under hypoxia (ImageStream flow cytometry) of 21-day differentiated erythroid cells; format: cell-based, human; conditions: cells derived from CD34+ cells of sickle patients, 21 days of differentiation, 4 hours at 2% oxygen, compared to vehicle, p < 0.01 (FIG. 6)
Method: To evaluate the effect of Compound 346 in sickle erythroid cells sickling, a sickling assay was conducted. […] Purified CD34+ cells were differentiated for 21 days. At the end of the differentiation, cells were incubated for 4 hours at 2% of oxygen in Hemox Buffer (Fisher Scientific) supplemented with 10mM Glutamine (Gibco) and 0.5% BSA (Sigma Aldrich). After exposure to hypoxia, cells were fixed with 25% of glutaraldehyde (Sigma Aldrich) and transferred to tubes for flowcytometry analysis, using a Amnis® ImageStream® flow cytometer to assess abnormal shaped cells. Cells were determined using RMS of brightfield image, and single cells using Area vs Aspect Ratio of brightfield image, and live cells were identified using a Live Dead NIR stain. Single living cells were analyzed using the following masking of the brightfield image: Skeleton (M1, Ch1, Thin), Object (M1, Ch1, Tight). Finally, the sickling factor was calculated using the following feature: Length_Skeleton (M1, CH1, Thin)/Width_(M1, Ch1, Tight). Cells with a sickle factor feature of 1.4 or higher were sickled. Cells with a sickle factor feature less than 1.4 were not sickled.

[2] = CD34+ HSPC from healthy individuals

Which “F-cell (HbF+) frequency in enucleated GlyA+ cells” value (human CD34+ cells; [2]) does the source give for `NC(=O)NO` [Hydroxyurea, hydroxyurea, reference compound] here?
Its value is “increases”.

What about the “fold change in fetal hemoglobin expression” value (human CD34+ cells) of the same compound?
Its value is 1,5 fold.

And the “F-cell (HbF+) frequency in enucleated GlyA+ cells” value [1]?
The value was “increase”.

Which results are given for `Cc1n[nH]c2nc(-c3ccc(NS(=O)(=O)c4cc(Cl)ccc4F)cc3)nc(OC3CCN(C(C)C)CC3)c12` [Compound 346]?
p-SGK1 (Thr256), ratio of phospho-SGK1 to total SGK1 (SGK1): decrease; phosphorylation of FOXO3 at Serine 315 (FOXO3): decrease; sickling of erythroid cells induced by hypoxia (sickle erythroid cells): significantly protected from sickling; F-cell (HbF+) frequency in enucleated GlyA+ cells (human CD34+ cells; [2]): increases; increase of HbF+ cells (HbF+ fold change to control) (human CD34+ cells; CD34+ HSPC from healthy individuals, 21 days of differentiation, compared to DMSO (FIG. 2B)): about 1.5 fold; frequency of F-cells (HbF+) (human CD34+ cells; CD34+ HSPC from healthy individuals, 21 days of differentiation, compared to vehicle (DMSO) (FIG. 2A)): increased; fold change in fetal hemoglobin expression (human CD34+ cells): 1,5 fold; F-cell (HbF+) frequency in enucleated GlyA+ cells [1]: increasing; HbF+ fold change to control ([1]; CD34+ cells from sickle cell patients, 14 days of differentiation, compared to control (Vehicle as DMSO) (FIG. 4B)): 1.5 fold
